What was measured:
Alpha glucosidase [1] = target: T1, Alpha glucosidase (Homo sapiens, UniProt O43451+P10253+P14410+Q2M2H8); experiment: Inhibition of alpha-glucosidase (unknown origin) at 50 uM using 4-Nitrophenyl-alpha-D-glucopyranoside as substrate incubated foe 5 mins followed by substrate addition measured after 15 mins relative to control; format: protein assay
Alpha glucosidase [2] = target: T1, Alpha glucosidase; experiment: Inhibition of alpha-glucosidase (unknown origin) using 4-Nitrophenyl-alpha-D-glucopyranoside as substrate incubated foe 5 mins followed by substrate addition measured after 15 mins; format: protein assay

| Compound | inhibition (Alpha glucosidase [1]) [%] | IC50 (Alpha glucosidase [2]) [µM] |
| --- | --- | --- |
| O=C1/C(=C/c2ccccc2)CCC/C1=C\c1ccccc1F | 43 |  |
| O=C1/C(=C/c2ccccc2)CCC/C1=C\c1ccc(Cl)c(Cl)c1 | 48.4 |  |
| O=C(/C=C(O)/C=C/c1ccco1)c1cc(O)ccc1O | 98.4 | 14.1 |
| Cc1ccc(/C=C2\CCC/C(=C\c3ccccc3)C2=O)cc1 | 34.1 |  |
| O=C(/C=C(O)/C=C/c1ccc(O)cc1O)c1ccccc1O | 61.2 | 40.7 |
| O=C1/C(=C/c2ccccc2)CCC/C1=C\c1cccc(O)c1 | 65.1 | 28.4 |
| Cc1cccc(/C=C2\CCC/C(=C\c3ccccc3)C2=O)c1 | 47.9 |  |
| O=C(/C=C(O)/C=C/c1cccc(O)c1)c1cc(Cl)ccc1O | 62.4 | 36.4 |
| O=C1/C(=C/c2ccccc2)CCC/C1=C\c1ccc(O)cc1 | 53 | 42.3 |
| O=C1/C(=C/c2ccccc2)CCC/C1=C\c1ccccc1Cl | 43 |  |
| O=C(/C=C(O)/C=C/c1ccc(O)cc1)c1cc(Cl)ccc1O | 45.3 |  |
| COc1ccc(/C=C2\CCC/C(=C\c3ccccc3)C2=O)c(OC)c1 | 41 |  |
| O=C(/C=C(O)/C=C/c1ccc(O)c(O)c1)c1cc(Cl)ccc1O | 85.6 | 15.1 |
| O=C(C1=C(O)/C(=C/c2ccc(O)cc2)CCC1)c1ccccc1 | 34.9 |  |
| O=c1c(O)c(-c2ccc(O)c(O)c2)oc2cc(O)cc(O)c12 [QUERCETIN] | 83.6 | 7.8 |
| O=C(/C=C(O)/C=C/c1cc(O)ccc1O)c1ccc(O)cc1O | 86.6 | 20 |
| COc1cc(/C=C2\CCC/C(=C\c3ccccc3)C2=O)cc(OC)c1OC | 16.3 |  |
| O=C(/C=C(O)/C=C/c1cccc(O)c1)c1ccccc1O | 40.4 |  |

| Compound | inhibition (Alpha glucosidase [1]) [%] | IC50 (Alpha glucosidase [2]) [µM] |
| --- | --- | --- |
| O=C(/C=C(O)/C=C/c1ccc(O)cc1)c1ccccc1O | 20.4 |  |
| COc1ccc(/C=C2\CCC/C(=C\c3ccccc3)C2=O)cc1 | 31.4 |  |
| O=C(/C=C(O)/C=C/c1cc(O)ccc1O)c1cc(O)ccc1O | 96.9 | 19.6 |
| O=C1/C(=C/c2ccccc2)CCC/C1=C\c1ccc(F)c(F)c1 | 37.8 |  |
| O=C(C1=C(O)/C(=C/c2ccc(O)c(O)c2)CCC1)c1ccccc1 | 55.9 | 41 |
| COc1ccc(OC)c(/C=C2\CCC/C(=C\c3ccccc3)C2=O)c1 | 43.8 |  |
| O=C1/C(=C/c2ccccc2)CCC/C1=C\c1cccc(Cl)c1Cl | 44 |  |
| O=C1/C(=C/c2ccccc2)CCC/C1=C\c1ccc(Br)cc1 | 29.1 |  |
| O=C1/C(=C/c2ccccc2)CCC/C1=C\c1ccc(O)c(O)c1 | 90.7 | 20.3 |
| O=C1/C(=C/c2ccccc2)CCC/C1=C\c1ccccc1Br | 46.8 |  |
| O=C1/C(=C/c2ccccc2)CCC/C1=C\c1cccc(Br)c1 | 27.2 |  |
| O=C(C1=C(O)/C(=C/c2cccc(O)c2)CCC1)c1ccccc1 | 43.2 |  |
| COc1cccc(/C=C2\CCC/C(=C\c3ccccc3)C2=O)c1OC | 31.8 |  |
| O=C1/C(=C/c2ccccc2)CCC/C1=C\c1cccc(F)c1 | 39.8 |  |
| O=C1/C(=C/c2ccccc2)CCC/C1=C\c1ccc(F)cc1 | 34 |  |
| O=C1/C(=C/c2ccccc2)CCC/C1=C\c1ccc(Cl)cc1 | 27.6 |  |
| O=C(/C=C(O)/C=C/c1ccc(O)c(O)c1)c1ccccc1O | 93.6 | 14.3 |
